Measured values from patent publication US9657031B2, “Ant-ligands molecules and biological applications” (MITOLOGICS, priority 2008, dated 2017).

Columns and labels:
lymphocytes (PBMC) = test: Toxicity on lymphocytes (PBMC); assay type: cell-based; conditions: doses below 400 μM; data not shown
[1] = system: S. cerevisiae WT (W303) and JL1-3 (ΔANT 1, 2 & 3) strains; test: Clonogenic assays on S. cerevisiae strains deficient for ANT isoforms; assay type: cell-based; conditions: ΔANT 1, 2 & 3 vs WT; viability at 48 h after 2 h incubation
Description: The importance of ANT isoforms in cytotoxic effects of the selected ANT-ligands has been evaluated using S. cerevisiae strains deficient for ANT isoforms (FIG. 5). Clonogenic assays on these strains are used to ensure that cytotoxic effects of the ANT-ligands are really due to the expression of ANTs in the cells.
FIG. 5: Target validation of compound 1 using ANT-deficient yeasts • (A) Quantitative estimation of yeasts viability at 48 h after 2 h incubation with compound 1 • (B) Illustration of WT (W303) and JL1-3 (LANT1, 2 and 3) yeast strains growth on plates at 48 h after 2 h incubation with compound 1.

[2] = system: Wi-38 (normal lung fibroblasts); test: Multiparametric analysis of cellular effects on Wi-38 cell line; assay type: cell-based; conditions: Wi-38, compared to HT-29, BxPC3, 48 h and 72 h treatments
Description: FIG. 4: Compound 1 induces low toxicity on normal fibroblast Wi-38 • A) Expression pattern of ANT isoforms in HT-29, BxPC3 and Wi-38 (normal lung fibroblasts) cell lines after RT-PCR reaction on total RNA • (B) Multiparametric analysis (mitochondrial transmembrane potential, plasma membrane permeabilization, phosphatidylserine exposure) of cellular effects of the ANT-ligand on Wi-38 cell line after 48 h and 72 h treatments.
MTT assay was used to evaluate the viability of a large range of human cell lines in presence of small molecules. Dose-response experiments allow us to determine a lethal-dose 50 (LD50; dose killing 50% of the cellular population) for each compound on a particular cell type after a 48-hour incubation. This viability assay is used as a first screening assay to identify cell-permeant molecules able to induce cell death (cytotoxic) or growth delay (cytostatic) among the 956 molecules of the ANT-ligands library. […] Indeed, the characterisation of cell death consists in a multiparametric analysis of treated-cells by flow cytometry (FacsCalibur, Becton Dickinson) where can be measured (1) the loss of mitochondrial trans-membrane potential (L′m; DIOC6 labelling), (2) the plasma membrane permeabilization (Propidium Iodide labeling) and (3) the phosphatidylserines exposure (Annexin-V-fitc labelling).

[3] = system: HT-29 and BxPC3 tumor cell lines; test: Multiparametric analysis of cell death (flow cytometry) on tumor cell lines; assay type: cell-based, human; conditions: for effect of caspase / cathepsin B inhibitors on apoptosis induced by the ANT-ligand: z-VAD-fmk, Q-VD-OPH, Z-FA-fmk, Bax/Bak deletion
Description: FIG. 2: The ANT-ligand is pro-apoptotic on HT-29 and BxPC3 tumor cell lines • (A) Chemical structure of compound 1 • (B) Multiparametric analysis (chromatin condensation, mitochondrial transmembrane potential (L′m) loss, plasma membrane permeabilization, phosphatidylserine exposure) of cellular effects of the ANT-ligand on BxPC3 cell line after 48 h treatment. • (C) Effects of compound 1 on ADP/ATP translocator activity of ANT measured on isolated mitochondria from mice liver or HT-29 tumor cell line (IC50 is given in μM based on ANT assays) and on viability of HT-29 and BxPC3 tumor cell lines (LD50 is given in μM based on MTT assays at 48 h).
MTT assay was used to evaluate the viability of a large range of human cell lines in presence of small molecules. Dose-response experiments allow us to determine a lethal-dose 50 (LD50; dose killing 50% of the cellular population) for each compound on a particular cell type after a 48-hour incubation. This viability assay is used as a first screening assay to identify cell-permeant molecules able to induce cell death (cytotoxic) or growth delay (cytostatic) among the 956 molecules of the ANT-ligands library. We have chosen to select molecules having an LD50 below 50 μM on HT-29 (colon adenocarcinoma) or BxPC3 (pancreatic adenocarcinoma) cell lines. These molecules come into the ANT activity screening assays and the efficient ANT-inhibitors (IC50 below 50 μM) are investigated for their mechanisms of cell death induction. Indeed, the characterisation of cell death consists in a multiparametric analysis of treated-cells by flow cytometry (FacsCalibur, Becton Dickinson) where can be measured (1) the loss of mitochondrial trans-membrane potential (L′m; DIOC6 labelling), (2) the plasma membrane permeabilization (Propidium Iodide labeling) and (3) the phosphatidylserines exposure (Annexin-V-fitc labelling).

## O=C(O)CCCCn1c(SCc2ccccc2Cl)nc2ccsc2c1=O [Compound 1]
Lymphocytes (PBMC)
  toxicity on lymphocytes (PBMC): no sign of toxicity
[1]
  resistance of ANT-deficient yeast strain versus wild-type: more resistant to the compound 1 than the wild-type (WT) control strain
[2]
  toxicity on normal lung fibroblasts: low toxicity
[2]; listed as compound 1
  toxicity on normal lung fibroblasts: minor compared to tumor cells
[3]; multiparametric analysis
  apoptosis hallmarks (mitochondrial potential loss, phosphatidylserine exposure, plasma membrane permeabilization, chromatin condensation): induces classical hallmarks of apoptosis
[3]; tumor cells
  mitochondrial trans-membrane potential: induces dissipation of the mitochondrial trans-membrane potential
[3]
  effect of caspase / cathepsin B inhibitors on apoptosis induced by the ANT-ligand: inhibited by pan-caspase inhibitors (z-VAD-fmk, Q-VD-OPH) but not by the cathepsin B inhibitor (Z-FA-fmk)
[3]; listed as compound 1
  effect of caspase / cathepsin B inhibitors on apoptosis induced by the ANT-ligand: abolished by caspase inhibitors
